According to ChEMBL document CHEMBL1201862, “PubChem BioAssay data set” (2004):
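In this assay, cells in 96-well plates receive the compound at five concentrations for 48 hours. Endpoints are linearly interpolated between the surrounding concentrations. The concentration for 50% growth inhibition is given as GI50.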 Active and inactive are the calls of the source. Rule as the data show it: active = GI50 up to about 1.1 µM and inactive = higher.

Tests used:
Assay in all cases: NCI tumour cell line growth inhibition, 48 h
CAKI-1 = system: CAKI-1
COLO 205 = system: COLO 205
EKVX = system: EKVX
HCT-116 = system: HCT-116
HOP-62 = system: HOP-62
IGROV-1 = system: IGROV-1
LOX IMVI = system: LOX IMVI
M14 = system: M14
Malme-3M = system: Malme-3M
NCI-H226 = system: NCI-H226
OVCAR-8 = system: OVCAR-8
SF-268 = system: SF-268
SF-295 = system: SF-295
SF-539 = system: SF-539
SK-MEL-2 = system: SK-MEL-2
SN12C = system: SN12C
TK-10 = system: TK-10
MDA-MB-231 = system: MDA-MB-231
MDA-N = system: MDA-N
DU-145 = system: DU-145

Measured: GI50

O=C1C[C@H](c2ccc(O)c(O)c2)Oc2cc(O)cc(O)c21
inactive: CAKI-1 > 100 µM | COLO 205 > 100 µM | EKVX 83.8 µM | HCT-116 > 100 µM | HOP-62 > 100 µM | IGROV-1 > 100 µM | LOX IMVI > 100 µM | M14 > 100 µM | Malme-3M 87.1 µM | NCI-H226 > 100 µM | OVCAR-8 > 100 µM | SF-268 63.5 µM | SF-295 > 100 µM | SF-539 > 100 µM | SK-MEL-2 > 100 µM | SN12C > 100 µM | TK-10 73.1 µM

COc1cc2c(cc1OC)C13CCN4CC5=CCOC(CC(=O)O)C(C5CC41)C3N2 (configuration not stated)
inactive: CAKI-1 > 100 µM | COLO 205 > 100 µM | EKVX > 100 µM | HCT-116 > 100 µM | HOP-62 > 100 µM | IGROV-1 > 100 µM | LOX IMVI > 100 µM | M14 > 100 µM | MDA-MB-231 > 100 µM | MDA-N > 100 µM | Malme-3M > 100 µM | NCI-H226 > 100 µM | OVCAR-8 > 100 µM | SF-268 > 100 µM | SF-295 > 100 µM | SF-539 > 100 µM | SK-MEL-2 > 100 µM | SN12C > 100 µM | TK-10 > 100 µM

COc1cc(C(=O)O)c(-c2cc3c(cc2C=O)OCO3)c(OC)c1OC
inactive: CAKI-1 > 10 µM | COLO 205 > 10 µM | DU-145 > 10 µM | HCT-116 > 10 µM | HOP-62 > 10 µM | IGROV-1 > 10 µM | LOX IMVI > 10 µM | M14 > 10 µM | MDA-MB-231 > 10 µM | MDA-N > 10 µM | Malme-3M > 10 µM | OVCAR-8 > 10 µM | SF-268 > 10 µM | SF-295 4.82 µM | SF-539 > 10 µM | SN12C > 10 µM | TK-10 > 10 µM

C1CSC[C@H]2COC[C@@H](CSCCS1)S2
inactive: COLO 205 > 100 µM | DU-145 > 100 µM | EKVX > 100 µM | HCT-116 > 100 µM | HOP-62 > 100 µM | LOX IMVI > 100 µM | M14 > 100 µM | MDA-MB-231 > 100 µM | MDA-N > 100 µM | OVCAR-8 > 100 µM | SF-268 > 100 µM | SF-295 > 100 µM | SF-539 > 100 µM | SN12C > 100 µM | TK-10 50.4 µM

CC(=O)OCc1cccc(O)c1C(=O)CCC=C(C)C
inactive: CAKI-1 > 100 µM | COLO 205 > 100 µM | DU-145 > 100 µM | EKVX > 100 µM | HCT-116 > 100 µM | HOP-62 > 100 µM | IGROV-1 > 100 µM | LOX IMVI 46.9 µM | M14 > 100 µM | MDA-N > 100 µM | Malme-3M > 100 µM | NCI-H226 > 100 µM | SF-268 > 100 µM | SF-295 32.7 µM | SF-539 > 100 µM | SK-MEL-2 > 100 µM | SN12C > 100 µM | TK-10 > 100 µM

CC(=O)Oc1ccc(O)c2c1CCCC2
inactive: CAKI-1 31.1 µM | COLO 205 22.4 µM | EKVX 64.9 µM | HCT-116 18.4 µM | HOP-62 > 100 µM | IGROV-1 > 100 µM | LOX IMVI 19.4 µM | M14 24.2 µM | Malme-3M > 40.5 µM | NCI-H226 > 100 µM | OVCAR-8 18 µM | SF-268 58.3 µM | SF-295 > 100 µM | SF-539 > 100 µM | SK-MEL-2 > 100 µM | SN12C > 45.4 µM | TK-10 21.4 µM

COc1cc(S(=O)(=O)Nc2ccc(-c3csc(/N=C\c4cccc(Oc5ccccc5)c4)n3)cc2)ccc1Cl
inactive: CAKI-1 74.8 µM | COLO 205 34.7 µM | DU-145 25.5 µM | EKVX 8.39 µM | HCT-116 14.6 µM | HOP-62 44.9 µM | IGROV-1 28.8 µM | LOX IMVI 19.3 µM | M14 17 µM | Malme-3M 47.8 µM | NCI-H226 47.5 µM | OVCAR-8 25.6 µM | SF-268 34.6 µM | SF-295 47.1 µM | SF-539 33.9 µM | SK-MEL-2 40.5 µM | SN12C 25.1 µM

Cc1ccc(NC(=O)C(=O)C(C#N)c2ccccc2C)cc1C (configuration not stated)
inactive: CAKI-1 > 100 µM | COLO 205 > 45.5 µM | EKVX > 100 µM | HCT-116 > 44.5 µM | HOP-62 > 100 µM | IGROV-1 > 100 µM | LOX IMVI > 41.2 µM | M14 > 100 µM | Malme-3M > 100 µM | NCI-H226 > 100 µM | OVCAR-8 > 100 µM | SF-268 > 100 µM | SF-295 > 100 µM | SF-539 > 100 µM | SK-MEL-2 > 100 µM | SN12C > 100 µM | TK-10 > 100 µM
